# Data: patent publication US10118930B2, “Piperidinylpyrazolopyrimidinones and their use” (BAYER PHARMA AKTIENGESELLSCHAFT, priority 2015, dated 2018)
# Counter-ions that a name gives are not always drawn.
# System: clot lysis (fibrinolysis) in diluted human citrated plasma, tPA-induced
# Experiment: Plasma-based clot lysis assay (5%)
# Type: biochemical
# Settings: human citrated platelet-poor plasma 5%, fibrinogen 3 μM, CaCl2 10 mM, tPA 0.2 nM, 37° C., OD at 405 nm
# In short: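 Compounds added to 5% platelet-poor citrated human plasma with 3 μM fibrinogen in 20 mM HEPES, 150 mM NaCl, 0.01% Brij, pH 7. Clotting and lysis started with 10 mM CaCl2 and 0.2 nM tPA at 37° C. IC50 derived by comparing time courses with a blank control reaction.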
row,Structure (SMILES),IC50
1,"O=c1cc(C2CCNCC2)n2ncc(-c3nc(Cc4ccc(F)cc4)no3)c2[nH]1 [Example 224, 3-[3-(4-fluorobenzyl)-1,2,4-oxadiazol-5-yl]-7-(piperidin-4-yl)pyrazolo[1,5-a]pyrimidin-5(4H)-one hydrochloride]",9.7 nM
2,"O=c1cc(C2CCNCC2)n2ncc(-c3noc(-c4cccc(Cl)c4)n3)c2[nH]1 [Example 226, 3-[5-(3-chlorophenyl)-1,2,4-oxadiazol-3-yl]-7-(piperidin-4-yl)pyrazolo[1,5-a]pyrimidin-5 (4H)-one hydrochloride]",35 nM
3,"O=c1cc(C2CCNCC2)n2ncc(-c3noc(-c4cccc(C(F)(F)F)c4)n3)c2[nH]1 [Example 227, 7-(piperidin-4-yl)-3-{5-[3-(trifluoromethyl)phenyl]-1,2,4-oxadiazol-3-yl}pyrazolo[1,5-a]pyrimidin-5(4H)-one hydrochloride]",34 nM
4,"O=c1cc(C2CCNCC2)n2ncc(-c3noc(Cc4ccccc4)n3)c2[nH]1 [Example 228, 3-(5-benzyl-1,2,4-oxadiazol-3-yl)-7-(piperidin-4-yl)pyrazolo[1,5-a]pyrimidin-5(4H)-one hydrochloride]",33 nM
5,"Cc1ccc(Cl)cc1-c1nc(-c2cnn3c(C4CCNCC4)cc(=O)[nH]c23)no1 [Example 230, 3-[5-(5-chloro-2-methylphenyl)-1,2,4-oxadiazol-3-yl]-7-(piperidin-4-yl)pyrazolo[1,5-a]pyrimidin-5(4H)-one hydrochloride]",36 nM
6,"O=c1cc(C2CCNCC2)n2ncc(-c3noc(-c4ccc(C(F)(F)F)cc4)n3)c2[nH]1 [Example 231, 7-(piperidin-4-yl)-3-{5-[4-(trifluoromethyl)phenyl]-1,2,4-oxadiazol-3-yl}pyrazolo[1,5-a]pyrimidin-5(4H)-one hydrochloride]",34 nM
7,"O=c1cc(C2CCNCC2)n2ncc(-c3noc(-c4ccc(C(F)(F)F)cc4Cl)n3)c2[nH]1 [Example 232, 3-{5-[2-chloro-4-(trifluoromethyl)phenyl]-1,2,4-oxadiazol-3-yl}-7-(piperidin-4-yl)pyrazolo[1,5-a]pyrimidin-5(4H)-one hydrochloride]",71 nM
8,"O=c1cc(C2CCNCC2)n2ncc(-c3noc(-c4ccc(Cl)cc4)n3)c2[nH]1 [Example 233, 3-[5-(4-chlorophenyl)-1,2,4-oxadiazol-3-yl]-7-(piperidin-4-yl)pyrazolo[1,5-a]pyrimidin-5(4H)-one hydrochloride]",36 nM
9,"O=c1cc(C2CCNCC2)n2ncc(-c3noc(-c4cc(Cl)cc(Cl)c4)n3)c2[nH]1 [Example 234, 3-[5-(3,5-dichlorophenyl)-1,2,4-oxadiazol-3-yl]-7-(piperidin-4-yl)pyrazolo[1,5-a]pyrimidin-5(4H)-one hydrochloride]",35 nM
10,"O=c1cc(C2CCNCC2)n2ncc(-c3nc(C(O)c4ccccc4)no3)c2[nH]1 (stereo not drawn) [Example 238, 3-{3-[hydroxy(phenyl)methyl]-1,2,4-oxadiazol-5-yl}-7-(piperidin-4-yl)pyrazolo[1,5-a]pyrimidin-5(4H)-one hydrochloride]",28 nM
11,"COc1ccc(C(C)(C)c2nc(-c3cnn4c(C5CCNCC5)cc(=O)[nH]c34)no2)cc1 [Example 242, 3-{5-[2-(4-methoxyphenyl)propan-2-yl]-1,2,4-oxadiazol-3-yl}-7-(piperidin-4-yl)pyrazolo[1,5-a]pyrimidin-5(4H)-one hydrochloride]",20 nM
12,"COc1ccc(C2(c3nc(-c4cnn5c(C6CCNCC6)cc(=O)[nH]c45)no3)CC2)cc1 [Example 245, 3-{5-[1-(4-methoxyphenyl)cyclopropyl]-1,2,4-oxadiazol-3-yl}-7-(piperidin-4-yl)pyrazolo[1,5-a]pyrimidin-5(4H)-one hydrochloride]",29 nM
13,"COc1ccc(Cc2nc(-c3cnn4c(C5CCNCC5)cc(=O)[nH]c34)no2)cn1 [Example 251, 3-{5-[(6-methoxypyridin-3-yl)methyl]-1,2,4-oxadiazol-3-yl}-7-(piperidin-4-yl)pyrazolo[1,5-a]pyrimidin-5(4H)-one hydrochloride]",31 nM
14,"CC(C)Oc1ccc(Cc2nc(-c3cnn4c(C5CCNCC5)cc(=O)[nH]c34)no2)cc1 [Example 252, 7-(piperidin-4-yl)-3-{5-[4-(propan-2-yloxy)benzyl]-1,2,4-oxadiazol-3-yl}pyrazolo[1,5-a]pyrimidin-5(4H)-one hydrochloride]",24 nM
15,"CC(C)(c1ccc(F)cc1)c1noc(-c2cnn3c(C4CCNCC4)cc(=O)[nH]c23)n1 [Example 255, 3-{3-[2-(4-fluorophenyl)propan-2-yl]-1,2,4-oxadiazol-5-yl}-7-(piperidin-4-yl)pyrazolo[1,5-a]pyrimidin-5(4H)-one hydrochloride]",17 nM
16,"CC(C)c1nc(-c2cnn3c(C4CCNCC4)cc(=O)[nH]c23)no1 [Example 256, 7-(piperidin-4-yl)-3-[5-(propan-2-yl)-1,2,4-oxadiazol-3-yl]pyrazolo[1,5-a]pyrimidin-5(4H)-one hydrochloride]",28 nM
17,"CCc1nc(-c2cnn3c(C4CCNCC4)cc(=O)[nH]c23)no1 [Example 262, 3-(5-ethyl-1,2,4-oxadiazol-3-yl)-7-(piperidin-4-yl)pyrazolo[1,5-a]pyrimidin-5(4H)-one hydrochloride]",23 nM

row,Structure (SMILES),IC50
1,"CC(C)N1CCC(c2noc(-c3cnn4c(C5CCNCC5)cc(=O)[nH]c34)n2)CC1 [Example 264, 7-(piperidin-4-yl)-3-{3-[1-(propan-2-yl)piperidin-4-yl]-1,2,4-oxadiazol-5-yl}pyrazolo[1,5-a]pyrimidin-5(4H)-one hydrochloride]",200 nM
2,"CCc1cnn2c(C3CCNCC3)cc(=O)[nH]c12 [Example 265, 3-ethyl-7-(piperidin-4-yl)pyrazolo[1,5-a]pyrimidin-5(4H)-one hydrochloride]",340 nM
3,"CC(C)(c1nnc(-c2cnn3c(C4CCNCC4)cc(=O)[nH]c23)o1)n1cncn1 [Example 275, 7-(piperidin-4-yl)-3-{5-[2-(1H-1,2,4-triazol-1-yl)propan-2-yl]-1,3,4-oxadiazol-2-yl}pyrazolo[1,5-a]pyrimidin-5(4H)-one hydrochloride]",20 nM
4,"O=c1cc(C2CCNCC2)n2ncc(-c3nnc(Cc4ccccc4Cl)o3)c2[nH]1 [Example 276, 3-[5-(2-chlorobenzyl)-1,3,4-oxadiazol-2-yl]-7-(piperidin-4-yl)pyrazolo[1,5-a]pyrimidin-5(4H)-one hydrochloride]",14 nM
5,"O=c1cc(C2CCNCC2)n2ncc(-c3nnc(C4(c5ccc(Cl)cc5)CC4)o3)c2[nH]1 [Example 278, 3-{5-[1-(4-chlorophenyl)cyclopropyl]-1,3,4-oxadiazol-2-yl}-7-(piperidin-4-yl)pyrazolo[1,5-a]pyrimidin-5(4H)-one hydrochloride]",19 nM
6,"O=c1cc(C2CCNCC2)n2ncc(-c3nnc(Cc4c(F)cccc4Cl)o3)c2[nH]1 [Example 279, 3-[5-(2-chloro-6-fluorobenzyl)-1,3,4-oxadiazol-2-yl]-7-(piperidin-4-yl)pyrazolo[1,5-a]pyrimidin-5(4H)-one hydrochloride]",25 nM
7,"COc1ccccc1Cc1nnc(-c2cnn3c(C4CCNCC4)cc(=O)[nH]c23)o1 [Example 280, 3-[5-(2-methoxybenzyl)-1,3,4-oxadiazol-2-yl]-7-(piperidin-4-yl)pyrazolo[1,5-a]pyrimidin-5(4H)-one hydrochloride]",29 nM
8,"O=c1cc(C2CCNCC2)n2ncc(-c3nnc(CCN4CCOCC4)o3)c2[nH]1 [Example 282, 3-{5-[2-(morpholin-4-yl)ethyl]-1,3,4-oxadiazol-2-yl}-7-(piperidin-4-yl)pyrazolo[1,5-a]pyrimidin-5(4H)-one hydrochloride]",34 nM
9,"O=c1cc(C2CCNCC2)n2ncc(-c3nnc(Cc4ccc(Cl)cc4)o3)c2[nH]1 [Example 284, 3-[5-(4-chlorobenzyl)-1,3,4-oxadiazol-2-yl]-7-(piperidin-4-yl)pyrazolo[1,5-a]pyrimidin-5(4H)-one hydrochloride]",20 nM
10,"O=c1cc(C2CCNCC2)n2ncc(-c3nnc(O)o3)c2[nH]1 [Example 286, 3-(5-hydroxy-1,3,4-oxadiazol-2-yl)-7-(piperidin-4-yl)pyrazolo[1,5-a]pyrimidin-5(4H)-one hydrochloride]",33 nM
11,"NC(=S)c1cnn2c(C3CCNCC3)cc(=O)[nH]c12 [Example 287, 5-oxo-7-(piperidin-4-yl)-4,5-dihydropyrazolo[1,5-a]pyrimidine-3-carbothioamide hydrochloride]",37 nM
12,"O=c1cc(C2CCNCC2)n2ncc(-c3nnc(-c4cccs4)o3)c2[nH]1 [Example 288, 7-(piperidin-4-yl)-3-[5-(thiophen-2-yl)-1,3,4-oxadiazol-2-yl]pyrazolo[1,5-a]pyrimidin-5 (4H)-one hydrochloride]",27 nM
13,"O=c1cc(C2CCNCC2)n2ncc(-c3nnc(CC(F)(F)F)o3)c2[nH]1 [Example 289, 7-(piperidin-4-yl)-3-[5-(2,2,2-trifluoroethyl)-1,3,4-oxadiazol-2-yl]pyrazolo[1,5-a]pyrimidin-5(4H)-one hydrochloride]",27 nM
14,"O=c1cc(C2CCNCC2)n2ncc(-c3nnc(-c4ccccc4Cl)o3)c2[nH]1 [Example 290, 3-[5-(2-chlorophenyl)-1,3,4-oxadiazol-2-yl]-7-(piperidin-4-yl)pyrazolo[1,5-a]pyrimidin-5(4H)-one hydrochloride]",26 nM
15,"O=c1cc(C2CCNCC2)n2ncc(-c3nnc(CN4CCCCC4)o3)c2[nH]1 [Example 291, 7-(piperidin-4-yl)-3-[5-(piperidin-1-ylmethyl)-1,3,4-oxadiazol-2-yl]pyrazolo[1,5-a]pyrimidin-5(4H)-one hydrochloride]",85 nM
16,"O=c1cc(C2CCNCC2)n2ncc(-c3nnc(C4CCCCC4)o3)c2[nH]1 [Example 293, 3-(5-cyclohexyl-1,3,4-oxadiazol-2-yl)-7-(piperidin-4-yl)pyrazolo[1,5-a]pyrimidin-5 (4H)-one hydrochloride]",31 nM
